# Tests used:
# [1] = system: E18 primary hippocampal neurons; test: Western blots of neuronal markers, densitometry; assay type: cell-based, mouse; conditions: 5 days
# Description: (§1) Following treatment in 6-well plates, cells were washed 2× in glucose buffered saline, GBS (5.4 mM KCl, 138 mM NaCl, 22 mM glucose, and 2 mM Na—KPO pH 7.2), and then lysed by 5 min incubation on ice in 100 or 150 μl of ice-cold RIPA buffer (PBS, 1% w/v NP-40 from Fisher Scientific, 0.1% w/v SDS, and 0.5% w/v sodium desoxycholate) containing 1 mM AEBSF (Gold Biotechnology, St. Louis, Mo., USA), 10 μg/ml aprotinin (Sigma-Aldrich, St. Louis, Mo., USA), and 20 μg/ml of leupeptin and pepstatin (US Biochemicals, Cleveland, Ohio, USA), and phosphatase inhibitors: NaF, Na orthovanadate, (3-glycerophosphate, and microcystein (Sigma-Aldrich, St. Louis, Mo., USA). Extracts were prepared by collecting and pooling a minimum of 2 wells by scraping, and lysates were centrifuged at 20,000×g for 10 min at 4° C. Protein concentration of each cell lysate was determined using the BCA kit (Thermo Scientific, Rockford, Ill., USA). The lysates (7.5-20 μg total protein) were separated on 10% SDS-PAGE gels (except for BDNF where 12% gels were employed) and transferred to 0.45 μm PVDF membrane (Pall, Pensacola, Fla., USA) for probing with antibodies as noted. Blots were blocked for 1 hr at 37° C. in 1×TBST (0.05% Tween 20 in TBS) containing 5% w/v blotting grade dry milk (Bio-rad, Hercules, Calif., USA), incubated in primary antibody overnight in blocking buffer at 4° C., washed 3×10 min in TBST at room temperature, followed by incubation with secondary antibody, i.e., peroxidase-conjugated anti-mouse or anti rabbit IgG (Jackson ImmunoResearch Laboratories, West Grove, Pa., USA) diluted in blocking buffer. Blots were washed 3×10 min in TBST and immunoreactive protein bands were visualized with enhanced chemiluminescence (ECL) reagents (Pierce, Rockford, Ill., USA). The ECL films of the blots were scanned and analyzed using Multi Gauge software version 3.0 (Fujifilm, Tokyo, Japan).
# (§2) The following primary antibodies were used: rabbit polyclonal anti-NFM (1:1000; Chemicon/Millipore, Billerica, Mass., USA); mouse monoclonal anti-NeuN, clone A60 (1:500; Millipore, Billerica, Mass., USA); rabbit polyclonal anti-Tuj-1, (3—III-tubulin (Covance; 1:800, Emeryville, Calif., USA); mouse monoclonal SMI 52 to the adult isoforms of MAP-2, MAP2a,b (1:1000; Covance, Emeryvilly, Calif., USA); rabbit polyclonal anti-Synapsin I (1:2000; Stressgen, Farmingdale, N.Y., USA); rabbit monoclonal anti-PSD95 (1:1000; Cell signaling, Danvers, Mass., USA); anti tau 92e (1:10000); mouse monoclonal anti-BDNF (1:1000; Calbiochem, Gibbstown, N.J., USA); rabbit polyclonal anti-TrkB (total) (1:500; Santa Cruz Biotechnology, Santa Cruz, Calif., USA); rabbit polyclonal anti-pTrkB (Tyr706) (1:400; Santa Cruz Biotechnology, Santa Cruz, Calif., USA), TrkC (1:1000; Cruz Biotechnology, Santa Cruz, Calif., USA); and pTrkY490 (1:500; Upstate USA Inc., Charlottesville, Va., USA). For loading control, the blots were developed with rabbit polyclonal antibody to GAPDH (1:2000; Santa Cruz Biotechnology, Santa Cruz, Calif., USA).
# To biochemically study the effect of BDNF peptides in inducing expression of neuronal markers, protein samples were recovered from cells treated with peptides B-5, B-4, B-3, or vehicle for five days. As a positive control, protein samples were collected from cells treated with BDNF at 20 ng/ml (0.79 nM) or 100 ng/ml (3.95 nM) (FIG. 3D, E). Western blots of the cell lysates were developed with antibodies to Synapsin I (presynaptic marker), PSD95 (postsynaptic marker), NeuN (late neuronal marker), NFM (early neuronal marker), MAP2 (dendritic marker), 0-IIItubulin (early neuronal marker), and tau 92e (axonal marker).
# TrkB receptor = biological target: T1, TrkB receptor (Mus musculus, UniProt P15209); test: TrkB phosphorylation (Tyr 706) and TrkB level in primary E18 hippocampal cells, with or without K252a; assay type: cell-based; conditions: 1 μM; for increase in the phosphorylation of the TrkB receptor: 5 min, without K252a; for TrkB levels / activation of TrkB (pTrkB Tyr 706 normalized to total TrkB): 1 h
# T1 construct: endogenous in cells; host or cells: primary hippocampal neurons from embryonic day 18 C57BL/6 mice
# T1 sequence (P15209 32-821): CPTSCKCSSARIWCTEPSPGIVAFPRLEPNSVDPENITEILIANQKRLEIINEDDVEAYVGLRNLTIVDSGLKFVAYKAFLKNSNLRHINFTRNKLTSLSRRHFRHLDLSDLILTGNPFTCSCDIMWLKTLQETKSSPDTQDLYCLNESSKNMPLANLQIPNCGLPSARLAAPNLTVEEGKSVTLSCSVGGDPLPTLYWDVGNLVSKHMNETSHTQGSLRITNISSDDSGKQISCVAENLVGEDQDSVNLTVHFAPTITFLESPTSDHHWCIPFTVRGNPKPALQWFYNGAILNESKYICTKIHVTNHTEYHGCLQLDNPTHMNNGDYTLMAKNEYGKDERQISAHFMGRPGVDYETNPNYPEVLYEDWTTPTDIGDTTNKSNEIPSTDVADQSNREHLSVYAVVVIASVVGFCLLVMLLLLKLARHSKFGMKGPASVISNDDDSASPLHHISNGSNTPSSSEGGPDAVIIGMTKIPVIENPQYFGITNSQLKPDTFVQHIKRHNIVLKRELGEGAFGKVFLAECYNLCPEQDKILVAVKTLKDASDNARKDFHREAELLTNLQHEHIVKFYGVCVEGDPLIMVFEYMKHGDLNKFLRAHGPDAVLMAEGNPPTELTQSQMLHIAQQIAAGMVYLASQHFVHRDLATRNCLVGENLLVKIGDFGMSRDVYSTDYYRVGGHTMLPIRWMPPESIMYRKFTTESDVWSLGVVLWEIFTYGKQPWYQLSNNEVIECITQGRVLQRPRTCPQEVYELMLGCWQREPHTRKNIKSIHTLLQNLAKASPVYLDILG
# Description: Peptides were dissolved in water in serial dilutions of 10 mM, 1 mM, 100 μM and 10 μM from which the necessary amount was added directly to the culture medium to a final concentration of 0.05 μM, 1 μM, or 10 μM. The BDNF (Peprotech, NJ, USA) was used as a reference in concentrations of 20 ng/ml (0.79 nM) and 100 ng/ml (3.95 nM). Cycloheximide (CHX) (Sigma-Aldrich, St Louis, Mo., USA) was used for blocking protein synthesis. CHX original stock was 100 mg/ml (355.4 mM) in DMSO; from a second stock of 35.54 mM in DMSO, the dilutions were made to the final concentrations of 100 μM. The K252a (CALBIOCHEM/EMD) was used to inhibit the TrkB Receptor. From a stock of 100 μM in DMSO, K252a was diluted to a final working concentration of 200 nM. The E18 primary hippocampal cells were pre-treated with CHX or K252a 1 h prior to the addition of the peptides or BDNF and a time course of these treatments for 15 min, 60 min and 2 days was studied.
# as §1
# as §2, with “Calif., USA). […]” for “Calif., USA).”
substance,measurement,setting,value
Ac-I-K-R-G-CONH2 [Peptide B-5],MAP2 expression (Western blot),[1]; 0.1 μM,increased significantly
same,NFM expression (Western blot),[1]; 0.1 μM,increased NFM expression
same,expression of NeuN (Western blot),[1]; 1 μM,increased the expression of NeuN
same,expression of PSD95 (Western blot),[1]; 1 μM,significant increment
same,levels of 0-IIItubulin (Western blot),"[1]; 1 μM, vs vehicle",this increase was not significant
same,"level of tau (92e antibody, Western blot)",[1],"Neither BNDF nor peptides B-3, B-4 or B-5 had any significant effect"
same,increase in the phosphorylation of the TrkB receptor,TrkB receptor,significant
same,TrkB levels,TrkB receptor,increased
same,activation of TrkB (pTrkB Tyr 706 normalized to total TrkB),TrkB receptor,relatively weak activation
Ac-S-KKR-CONH2 [Peptide B-3],expression of NeuN (Western blot),[1]; 0.1 μM,increased the expression of NeuN
same,expression of NeuN (Western blot),[1]; 1 μM,increased the expression of NeuN
same,"level of tau (92e antibody, Western blot)",[1],"Neither BNDF nor peptides B-3, B-4 or B-5 had any significant effect"
same,increase in the phosphorylation of the TrkB receptor,TrkB receptor,significant
same,TrkB levels,TrkB receptor,increased
same,activation of TrkB (pTrkB Tyr 706 normalized to total TrkB),TrkB receptor,relatively weak activation

# From patent publication US9512178B2, “Neurogenic brain-derived neurotrophic factor peptides” (Research Foundation for Mental Hygiene, Inc., priority 2012, dated 2016)
